For one assay, the system named is PI3K pathway. In words: NSC survival after PI3K inhibitor LY294002 pre-treatment. As to conditions: 10 μM LY294002 pre-treatment, then 20 μM Aβ25-35 and 10 μM PEP1 for 48 hours. It counts as cell-based, rat. The procedure:
To identify the role of the PI3K/AKT signaling system in the PEP1 mechanism, NSCs were treated with a PI3K inhibitor LY294002 for 1 hour before treatment of 50 μM PEP1 and 20 μM Aβ25-30. NSCs were divided into four groups as follows: control group (Group 1), group treated with 20 μM Aβ25-35 for 48 hours (Group 2), group treated with 20 μM Aβ25-35, as well as 50 μM PEP1, for 48 hours (Group 3), and group treated with 10 μM LY294002 and 20 μM Aβ25-35, as well as 50 μM PEP1, for 48 hours (Group 4). To investigate a PEP1 effect on nerve protection via a PI3K pathway induced by Aβ25-35 toxicity, NSCs were divided into four groups: control group (Group 1), group treated with 20 μM Aβ25-35 for 48 hours (Group 2), group treated with 20 μM Aβ25-35 and 10 μM PEP1 for 48 hours (Group 3), and group treated with 10 μM LY294002 for […], and then treated with 20 μM Aβ25-35 10 μM PEP1 for 48 hours (Group 4).

Assay [1] relates to NSCs. As to the kind of experiment: Cell viability of NSCs (CCK-8, MTT, LDH). Format: cell-based, rat. The conditions noted are these: NSCs, Aβ25-35 alone 0, 2.5, 5, 10, 20, 40 μM, 48 hours; CCK-8, MTT, LDH. How it is done: NSCs were isolated from the brain of a rat embryo, cultured and developed. The NSC culture was performed in the same manner as to be described below. Briefly describing, a rat embryo was obtained on day 13 of the embryonic period, and the brain was quickly removed and placed in a petri dish containing cold phosphate-buffered physiological saline (Hank's balanced salt solution; HBSS).
Single cells were isolated from the cerebral cortex, the lateral ganglion eminence, and the embryonic midbrain. These cells were put into a dish pre-treated with L-ornithine and fibronectin, containing calcium and magnesium-free phosphate-buffered physiological saline (PBS) at a density of 20,000 cells/cm^2. In addition, the cells were cultured in an N2 medium (DMEM F/12, […] insulin, 100 mg/L transferrin, 30 nM selenite, […], 20 nM progesterone, 0.2 mM ascorbic acid, […], 8.6 mM D(+) glucose, and […]). The culture was maintained in humidified and 5% CO2 conditions for 4 to 6 days at 37° C.
NSCs were divided into 6 samples, and each sample was treated with […] Aβ25-30 oligomers for 48 hours to identify a suitable concentration. […] Briefly, Aβ25-30 was dissolved in hexafluoroisopropanol to reach a concentration of 1 mM. In addition, the prepared solution was dispensed using a sterilized ultramicrocentrifuge tube. […]
To identify the PEP1 effect in NSCs, PEP1 was treated at various concentrations of 0, 1, 10, 50, 100, and 200 μM for 48 hours. […] The plate was gently washed with PBS several times, and cell viability was measured using a cell counting kit-8 (CCK-8), MTT and lactate dehydrogenase (LDH).
CCK-8 was used as a method for counting living cells by bonding 2-[2-methoxy-4-nitrophenyl]-3-[4-nitrophenyl]-5-[2,4-disulfophenyl]-2H-tetrazolium, monosodium salt (WST-8) with 1-methoxyphenazinium methylsulfate (PMS). […] Cell viability was evaluated by measuring absorbance at 450 nm. […] Cell viability was evaluated by measuring absorbance at 490 nm and reference absorbance at 690 nm. […]

The test system of assay [2] is NSCs. In words: NSC proliferation (BrdU and CFU assays). It counts as cell-based, rat. As to conditions: NSCs, Aβ25-35 alone 0-40 μM, 48 hours; BrdU and CFU. The procedure:
NSCs were treated with different concentrations of PEP1 and 20 μM Aβ25-30 for 48 hours. Afterward, NSCs were cultured in bromodeoxyuridine (BrdU)-labeled media for 5 hours and observed using a kit. Cell division was evaluated by measuring absorbance at 370 nm and reference absorbance at 492 nm. All results were normalized based on a cell-free well.
A CFU assay was carried out by the following method. Briefly, 0.25×10^5 NSCs were plated in a 6-well plate, and treated with 20 μM Aβ25-30 and then with PEP1 at 1, 10 or 50 μM for 48 hours. The cells were washed with DPBS, and then the medium was exchanged with a fresh cell culture medium. Fourteen days later, the cells were washed again with DPBS, and stained with 0.5% crystal violet dissolved in methanol for 30 minutes at room temperature. Following staining, the plate was washed with DPBS and then dried. The number of colonies was observed using a stereoscopic microscope, and among these colonies, those smaller than 2 mm or faintly stained were removed.

Assay [3] can be described thus: Cell-free ROS production (DHBA level by HPLC). As to conditions: 20 μM Aβ25-35 and PEP1 0, 1, 10, 50 μM. The procedure:
To investigate how Aβ25-30 and PEP1 influenced ROS, a DHBA level was measured and observed by a cell-free method. This method was carried out by observing the DHBA level in a tube containing 20 μM Aβ25-30 and each concentration of PEP1 (0, 1, 10 or 50 μM) through HPLC.

Data on two compounds can be found in patent US20180318383A1, “PEPTIDE HAVING NEURONAL LOSS PREVENTION AND REGENERATION EFFECTS, AND COMPOSITION CONTAINING SAME” (GEMVAX & KAEL CO., LTD., priority 2015, published 2018).

Where no end group is shown, it is not given here.

As to `O=c1cc(N2CCOCC2)oc2c(-c3ccccc3)cccc12` [LY294002], the “survival ability of NSCs degraded, Group 4 compared to Group 3” value with PI3K pathway is reported as “approximately 16%”.

On to “Aβ25-35: β-Amyloid 25-35 oligomers used to induce neurotoxicity in NSCs (GSNKGAIIGLM; also: used as oligomers; UniProt P05067 696-706, looked up, fragment) [reference compound]”, for which the cell survival ability result in the assay with NSCs [1] is “significantly reduced in a concentration-dependent method”. The proliferation entry in the assay with NSCs [2] is on record as “significantly reduced in a concentration-dependent method”. In addition, the “ROS production under a cell-free condition” value in assay [3] is reported as “did not exhibit a significant influence”.
